Here are results for eight compounds from patent US4985595A, “Aminobenzamide derivatives” (Daiichi Pharmaceutical Co., Ltd., priority 1984, dated 1991).

Like-named read-outs stand apart in the source and are kept apart here.

For one data set, the system named is stress ulcer in rat. The data set can be described thus: Inhibitory effect on stress ulcer in rat (restraint and water-immersion stress method). It is filed as in vivo. Conditions: read-out: Inhibitory Effect (%). As for the experimental part:
INHIBITORY EFFECT ON STRESS ULCER IN RAT
The compounds of this invention were administered orally to 7 rats weighing about 300 g in each group. After 30 minutes, they were immobilized and immersed in water at 21° C. for 7 hours to prepare the stress ulcer.

For data set [1] the following is noted: disclosed in Japanese Patent Application (OPI) No. 18947/81; cited from earlier work.
Another data set can be described thus: in vivo. Conditions: mouse, po, mice, orally administered, read-out: acute toxicity (LD50).
Setting [2] is: 50 mg/kg, oral, rat, 30 minutes before immobilization and immersion in water at 21° C. for 7 hours, *P < 0.05, **P < 0.01.
Setting [3] is: 100 mg/kg, oral, rat, 30 minutes before immobilization and immersion in water at 21° C. for 7 hours, *P < 0.05, **P < 0.01.
The mark [4] stands for this setting: 200 mg/kg, oral, rat, 30 minutes before immobilization and immersion in water at 21° C. for 7 hours, *P < 0.05, **P < 0.01.

Consider `COc1ccc(CCNC(=O)CNc2cccc(C(=O)N(C)C)c2)cc1OC` [Compound e, 3((2-((2-(3,4-Dimethoxyphenyl)ethyl)amino)-2-oxoethyl)amino)-N,N-dimethylenzamide], for which, in the data set on stress ulcer in rat (setting [2]), the inhibition in vivo at 50 mg/kg is 39%. For the same compound, the inhibition in vivo at 100 mg/kg in the data set on stress ulcer in rat (setting [3]) was 55%. In addition, in the data set on stress ulcer in rat (setting [4]), the inhibition in vivo at 200 mg/kg was determined as 64%.
Consider `CNC(=O)c1cccc(NCC(=O)NCCc2ccc(OC)c(OC)c2)c1` [Compound a], for which the inhibition in vivo at 50 mg/kg in the data set on stress ulcer in rat (setting [2]) stood at 46%. In addition, in the data set on stress ulcer in rat (setting [3]), the inhibition in vivo at 100 mg/kg stood at 60%. Besides, the inhibition in vivo at 200 mg/kg with stress ulcer in rat (setting [4]) was found to be 72%.
Taken in the same sequence, the figures for `CCNC(=O)c1cccc(NCC(=O)NCCc2ccc(OC)c(OC)c2)c1` [Compound b, 3-((2-((2-(3,4-dimethoxyphenyl)ethyl)amino)-2-oxoethyl)amino)-N-ethylbenzamide] were 30%, 53% and 63%.
Turning to `COc1ccc(CCNC(=O)CNc2cccc(C(N)=O)c2)cc1OC.O.O.O` [Control, 2-(3-carbamoylphenylamino)-N-(3,4-dimethoxyphenethyl)acetamide trihydrate], the “chemical and physical properties (stability)” value in data set [1] is “stable chemical and physical properties”.
Take `CNC(=O)c1cc(OC)ccc1NCC(=O)NCCc1ccc(OC)c(OC)c1` [Compound g]: the inhibition in vivo at 50 mg/kg with stress ulcer in rat (setting [2]) was 45%. For the same compound, the inhibition in vivo at 100 mg/kg in the data set with stress ulcer in rat (setting [3]) was determined as 41%. Besides, the inhibition in vivo at 200 mg/kg in the data set with stress ulcer in rat (setting [4]) was determined as 65%.
As to `CNC(=O)c1ccc(OC)cc1NCC(=O)NCCc1ccc(OC)c(OC)c1` [Compound c, 2-((2-((2-(3,4-dimethoxyphenyl)ethyl)amino)-2-oxoethyl)amino)-4-methoxy-N-methylbenzamide], the LD50 in the data set “in vivo” is above 2000 mg/kg. Moreover, the inhibition in vivo at 50 mg/kg in the data set on stress ulcer in rat (setting [2]) was 33%. Besides, the inhibition in vivo at 100 mg/kg in the data set with stress ulcer in rat (setting [3]) was found to be 36%. Moreover, in the data set on stress ulcer in rat (setting [4]), the inhibition in vivo at 200 mg/kg is 69%.
Take `COc1ccc(CCNC(=O)CN(CS(=O)(=O)[O-])c2cccc(C(N)=O)c2)cc1OC.[Na+]`: the LD50 in the data set “in vivo” is above 2000 mg/kg. Moreover, in the data set with stress ulcer in rat (Rattus norvegicus, po, 7 h), the inhibition in vivo at 50 mg/kg is 34%, the inhibition in vivo at 100 mg/kg stood at 36% and the inhibition in vivo at 200 mg/kg is 42%.
With `COc1ccc(CCNC(=O)CNc2cccc(C(=O)N3CCOCC3)c2)cc1OC` [Compound f, N(2-(3,4-Dimethoxyphenyl)ethyl)-2-((3-morpholinocarbonylphenyl)amino)acetmide], the inhibition in vivo at 50 mg/kg with stress ulcer in rat (setting [2]) was determined as 10%. In addition, the inhibition in vivo at 100 mg/kg with stress ulcer in rat (setting [3]) is 53%. In addition, in the data set on stress ulcer in rat (setting [4]), the inhibition in vivo at 200 mg/kg was determined as 86%.

In general, LD50 refers to the dose at which mortality reaches 50%.
